# Data taken from PMC11124387, “A Reliable Multifaceted Solution against Foodborne Viral Infections: The Case of RiLK1 Decapeptide” (Molecules, 2024).
# System: Campylobacter jejuni
# Type: cell-based
# Details: peptide 40 and 80 µM, 6 h at 37 °C
# From the text: The monophasic variant of Salmonella Typhimurium, Salmonella Napoli, and Campylobacter jejuni were isolated by the Laboratory of Microbiological Food Control—Department of Food Microbiology of the Istituto Zooprofilattico Sperimentale del Mezzogiorno in Portici (Naples, Italy) in raw and processed foodstuffs of animal origin. Specifically, the monophasic variant of S. Typhimurium and S. Napoli were isolated from bivalve mollusks, while C. jejuni was isolated from poultry meat. Bacterial cells were cultured at 37 °C in the appropriate culture media (S. Typhimurium and S. Napoli in buffered peptone water (Thermo Fisher, Milan, Italy) and C. jejuni in Bolton Broth (Oxoid, Madrid, Spain)) until collection and then diluted in fresh broth to a final concentration of 1.5 × 10^3 colony forming units (CFUs)/mL. Thereafter, peptide stock solutions in DMSO were added to the bacterial suspension at the same concentrations used in the virucidal assays (40 and 80 µM) and incubated at 37 °C for 6 h. Samples containing only cell suspension and DMSO were used as controls. […]
substance,measurement,value
"KLRWVKIWKK-NH2 [RiLK30, newly designed RiLK1 derivative, Arg residues exchanged with Lys and Lys3 with Arg]",inhibitory activity against Campylobacter jejuni (in words),the most ineffective
